Results from patent US9969723B2, “3-(4-(benzyloxy)phenyl)hex-4-ynoic acid derivative, method of preparing same and pharmaceutical composition for preventing and treating metabolic disease including same as effective ingredient” (HYUNDAI PHARM CO., LTD, priority 2014, dated 2018).
Like-named read-outs stand apart in the source and are kept apart here.

What was measured:
[1] = system: Male OLETF (Otsuka Long-Evans Tokushima fatty) rats, the type II diabetes animal model (obesity); experiment: Oral glucose tolerance test (OGTT) 3; assay type: in vivo, rat
Procedure: (§1) Male OLETF (Otsuka Long-Evans Tokushima fatty) rats at 29˜30 weeks, the type II diabetes animal model (obesity), were adapted at least for 7 days. Only healthy animals were selected thereafter, followed by OGTT. After fasting for 16˜18 hours, 5 rats per group were randomly selected and orally administered with the compounds prepared in Examples 5, 9, 14, 28, 37, and 47 at the dose of 1˜10 mg/kg. At this time, 5% polyethyleneglycol (PEG) was orally administered at the same dose to the non-treated group rats. 60 minutes after the sample administration, glucose (4 g/kg) was orally administered thereto at the dose of 5 ml/kg. Then, blood glucose was measured by using Accu-chek active strip (Roche diagnostic Co.). The time for the measurement was set at 60 minutes before the glucose administration (−60), 0 minute, 20 minutes, 40 minutes, 60 minutes, and 120 minutes after the glucose administration, and blood glucose was measured through tail vein puncture.

[2] = system: Male Goto-Kakizaki (GK) rats, the type II diabetes animal model (not obesity); experiment: Oral glucose tolerance test (OGTT) 2; assay type: in vivo, rat
Procedure: as §1, with “Goto-Kakizaki (GK)” for “OLETF (Otsuka Long-Evans Tokushima fatty)”, “22˜23” for “29˜30”, “(not obesity),” for “(obesity),”, “0.3˜10” for “1˜10”

GPR40 = GPR40 (Homo sapiens (Human), UniProt O14842); experiment: GPR40 protein activity by intracellular calcium concentration (Fluo-4, Flexstation 3) in transfected HEK-293 cells; assay type: cell-based; conditions: HEK-293 cells transfected with human GPR40, intracellular calcium
Procedure: The GPR40 protein activity according to the novel 3-(4-(benzyloxy)phenyl)hex-4-inoic acid derivative of the present invention was measured by investigating the changes in intracellular calcium concentration affected by the GRP40 activation. First, HEK-293 cells were transfected with human GPR40 DNA (Origene, RC218370) by using Fugene HD (Promega, E2311). […] 24 hours later, the cell culture medium was replaced with Dulbecco's Modified Eagle Medium (DMEM, 50 μl/well) supplemented with 1% fetal bovine serum (FBS). To measure the calcium concentration, 50 μl of Fluo-4 reagent (Invitrogen, F10471) was added to each well, followed by culture in a 37° C. incubator for 2 hours. […] 2 hours after the culture began, those prepared samples were automatically injected to the cells by using Flexstation 3 (Molecular Devices). Then, intracellular calcium concentration was measured for 120 seconds by using SoftMax® Pro software. At this time, dimethylsulfoxide (DMSO) was injected to the cells for the non-treated group, followed by measuring the calcium concentration therein. The GPR40 protein activity was calculated by the below mathematical formula 1 with the results of calcium concentration measurement. GPR40 activity=(intracellular calcium concentration increased by the sample)/(intracellular calcium concentration of the non-treated group)×100 [Mathematical Formula 1]

[3] = values in text, read-out: EC50, concentration promoting activation of GPR40 protein by 50%
[4] = oral dose 10 mg/kg, values in text

Sequence of GPR40 (O14842 whole entry): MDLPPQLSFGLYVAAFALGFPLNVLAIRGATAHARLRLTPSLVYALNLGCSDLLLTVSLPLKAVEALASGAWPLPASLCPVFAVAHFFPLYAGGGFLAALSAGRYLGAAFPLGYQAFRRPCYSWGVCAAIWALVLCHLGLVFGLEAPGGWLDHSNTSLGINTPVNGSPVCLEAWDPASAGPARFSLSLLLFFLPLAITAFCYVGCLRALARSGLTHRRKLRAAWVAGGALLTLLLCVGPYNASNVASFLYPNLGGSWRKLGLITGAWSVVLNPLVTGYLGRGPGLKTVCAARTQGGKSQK

Structure (SMILES) | % AUC ([1]; oral dose 1 mg/kg) | % AUC ([1]; oral dose 3 mg/kg) | % AUC ([1]; oral dose 10 mg/kg) | % AUC ([2]; oral dose 0.3 mg/kg) | % AUC ([2]; oral dose 1 mg/kg) | % AUC ([2]; oral dose 3 mg/kg) | % AUC ([2]; oral dose 10 mg/kg) | EC50 (GPR40; read-out: EC50) [nM] | EC50 (GPR40; [3]) [nM] | hypoglycemic effect compared to Comparative Example 1 at 10 mg/kg ([1]; oral dose 1 mg/kg) | hypoglycemic effect compared with the non-treated group [1, 4] | hypoglycemic effect by that of the non-treated group [2, 4]
CC#C[C@@H](CC(=O)O)c1ccc(OCc2ccc(CN3CC=C(c4ccccc4)CC3)cc2)cc1 [Example 28, (S)-3-(4-(4-((4-phenyl-5,6-dihydropyridine-1(2H)-yl)methyl)benzyloxy)phenyl)hex-4-ynoic acid] | B (25.0-35.0%) | B (25.0-35.0%) | B (25.0-35.0%) | C (under 25.0%) | C (under 25.0%) | C (under 25.0%) | B (25.0-35.0%) | < 200 | < 200 |  |  | 
CC#CC(CC(=O)O)c1ccc(OCc2cccc(C3=CCC(O)CC3)c2)cc1 (stereo not drawn) [Example 5, 3-(4-(3-(4-hydroxycyclohex-1-enyl)benzyloxy)phenyl)hex-4-ynoic acid] | B (25.0-35.0%) | B (25.0-35.0%) | A (over 35.0%) | C (under 25.0%) | C (under 25.0%) | C (under 25.0%) | B (25.0-35.0%) | 200 to 300 |  |  |  | 
CC#C[C@@H](CC(=O)[O-])c1ccc(OCc2cccc(N3CCN(c4ccc(OC)cc4)CC3)c2)cc1.[Na+] [Example 47, sodium (S)-3-(4-(3-(4-(4-methoxyphenyl)piperazin-1-yl)benzyloxy)phenyl)hex-4-ynoate] | C (under 25.0%) | C (under 25.0%) | B (25.0-35.0%) | C (under 25.0%) | C (under 25.0%) | B (25.0-35.0%) | B (25.0-35.0%) | 200 to 300 |  |  |  | 
CC#CC(CC(=O)O)c1ccc(OCc2ccc(CN3CC=C(c4ccccc4)CC3)cc2)cc1 (stereo not drawn) [Example 14, 3-(4-(4-((4-phenyl-5,6-dihydropyridine-1(2H)-yl)methyl)benzyloxy)phenyl)hex-4-ynoic acid] | C (under 25.0%) | B (25.0-35.0%) | B (25.0-35.0%) | C (under 25.0%) | C (under 25.0%) | B (25.0-35.0%) | B (25.0-35.0%) | < 200 | < 200 |  |  | 
CC#C[C@@H](CC(=O)[O-])c1ccc(OCc2ccc(CN3Cc4ccccc4C3)cc2)cc1.[Na+] [Example 37, sodium (S)-3-(4-(4-(isoindoline-2-ylmethyl)benzyloxy)phenyl)hex-4-ynoate] | A (over 35.0%) | A (over 35.0%) | A (over 35.0%) | C (under 25.0%) | B (25.0-35.0%) | B (25.0-35.0%) | A (over 35.0%) |  |  | higher hypoglycemic effect | more than 35.0% | more than 35.0%
CC#C[C@@H](CC(=O)O)c1ccc(OCc2ccc(CN3CCN(c4ccc(C#N)cn4)CC3)cc2)cc1 [Example 45, (S)-3-(4-(4-((4-(5-cyanopyridine-2-yl)piperazine-1-yl)methyl)benzyloxy)phenyl)hex-4-ynoic acid] |  |  |  |  |  |  |  | > 300 |  |  |  | 
